The values that follow come from US20120270900A1, “NOVEL METHOD OF TREATMENT” (Topo Target A/S, priority 2009, published 2012).

For series [1], the system named is colon cancer cell line HCT116. In words: CellTiterGlo luminescent cell viability assay. The settings on record: 3 days treatment, varying concentrations of nicotinic acid. Format: cell-based. The method, then:
FIG. 8 illustrates cell viability in the colon cancer cell line HCT116 measured by CellTiterGlo® after 3 days of compound 1050 treatment with and without varying concentrations of nicotinic acid added to the medium.
(§1) CellTiterGlo® luminescent cell viability assay: Cells were plated in opaque 96-well plates (5,000 cells/well) 24 hours before use and then incubated with drug for 72 hours at the indicated concentrations with or without nicotinic acid (Invitrogen) added to the media. The CellTiterGlo® assay (Promega) was performed according to the manufacturer's instructions and bioluminescence was measured. Analysis and determination of IC50 values were performed by Prizm.

Series [2] has as its system small cell lung cancer cell line NYH. Nature of the series: CellTiterGlo luminescent cell viability assay. The settings on record: 3 days treatment, 1 mM nicotinic acid. Format: cell-based. The method, then: FIG. 9 illustrates cell viability in the small cell lung cancer cell line NYH measured by CellTiterGlo® after 3 days of compound 1050 treatment with and without 1 mM nicotinic acid added to the medium.
as §1

Series [3] concerns A2780. Nature of the series: Clonogenic assay, APO866 with or without 100 μM nicotinic acid. Format: cell-based. As to the method:
(§2) Clonogenic assay: Cells were incubated with APO866 at different concentrations with or without 100 μM nicotinic acid and seeded out on semi-solid agar matrix with sheep red blood cells and growth medium. Following a 3-week incubation period, the colonies were counted and % survival relative to control (untreated) cells was calculated. IC50 values were calculated on basis of survival at different concentrations of APO866.
(§3) Supplement of nicotinic acid to the growth medium can protect against the cytotoxic effects of inhibitors of nicotinamide phosphoribosyltransferase (NAMPRT), including APO866, by synthesizing nicotine adenine dinucleotide (NAD) by an alternative pathway. A cancer cell line, HEPG2, has been shown not to be able to utilize nicotinic acid for NAD synthesis (Cancer Res. 2003 Nov. 1; 63(21):7436-42). We investigated the protective effect of nicotinic acid against APO866 induced cell death in a panel of cell lines of different origin. […] We used continuous treatment with APO866 in a clonogenic assay. Two cell lines, A2780 and NYH were not protected against APO866 when incubated in a medium containing 100 μM nicotinic acid (Table 1). ML-2, HCT-116 and A431 cells display an increase of IC50 values of more than 40-90 fold in nicotinic acid containing medium compared to standard medium. Addition of 100 μM nicotinic acid to the medium had in itself no effect on the survival of the cells (data not shown)

The subject of series [4] is A431. The description is as above. Format: cell-based. The method, then: as §2, §3
Series [5] relates to HCT-116. The description is as above. Format: cell-based. As to the method:
as §2, §3

Series [6] relates to ML-2. Described as above. It is filed as cell-based. The method, then: as §2, §3
Series [7] concerns NYH. The description is as above. It is filed as cell-based. The method, then:
as §2, §3

Series [8] concerns panel of cell lines of different origin. Nature of the series: Clonogenic assay, continuous APO866 treatment, panel of cell lines. Format: cell-based. The method, then: as §2
as §3, with “Addition of 100 μM nicotinic acid to the medium had in itself no effect on the survival of the cells (data not shown)” left out

Series [9] has as its system PC-3 cells. Nature of the series: LD50 of APO866 in PC-3 cells with and without nicotinic acid. Format: cell-based.
Series [10] is described as follows: Maximally tolerated dose of APO866 in mice. The conditions noted are these: mouse, in vivo, intraperitoneal; twice a day; Balb/c nude mice; data not shown.
A short description of series [11]: Survival of mice under high dose APO866 with or without oral nicotinic acid. Format: in vivo. As to the method:
FIG. 2 illustrates the cumulative survival of mice in response to high dose APO866 treatment. Treatment is 60 mg APO866 twice/day for 4 days. NA=nicotinic acid.

In series [12] the test system is A2780 xenografts. In words: Subcutaneous A2780 xenograft study. As to the method: FIG. 4 illustrates the cumulative survival of mice with subcutaneous A2780 xenografts: Time used for each individual mouse's tumour to reach a size of 800 mm3. The mice were treated i.p. with doses of 15 or 50 mg/kg APO866×2/day in two weekly 4-day cycles combined with vehicle p.o. or 50 mg/kg nicotinic acid (NA). Legend on the figure: The p-values of log-rank analysis comparing the individual groups are shown on the figure.
(§4) Mouse studies: In toxicity and xenograft studies NMRI mice and nude mice, respectively, were treated once daily p.o. with 0.5% HPMC in water or nicotinic acid in the same vehicle combined with two daily injections of APO866 in PBS/saline with 3% HPβCD. The mice were treated in two weekly four-day cycles.
(§5) In xenograft studies, 10^7 cancer cells were injected s.c. in a mixture of PBS/matrigel in nude athymic mice.
(§6) We investigated the in vivo rescue effects of nicotinic acid on nude mice carrying xenograft tumours of A2780 and ML-2 cells. APO866 was given twice daily in weekly four-day cycles for two weeks starting when tumours had reached a size of 100 mm^3.

Series [13] relates to ML-2 xenografts. In words: Subcutaneous ML-2 xenograft study. As to the method: FIG. 5 illustrates the cumulative survival of mice with subcutaneous ML-2 xenografts: Time used for each individual mouse's tumour to reach a size of 800 mm3. The mice were treated i.p. with doses of 15 or 50 mg/kg APO866×2/day in two weekly 4-day cycles combined with vehicle p.o. or 50 mg/kg nicotinic acid (NA). Legend on the figure: The p-values of log-rank analysis comparing the individual groups are shown on the figure.
as §4, §5, §6

Series [14] has as its system primary lymphocytes. The conditions noted are these: cited from earlier work.
For series [15], the system named is primary intestinal cells. The settings on record: cited from earlier work.
In series [16] the test system is leukemic cells. The settings on record: WO 1999/053920; cited from earlier work.
Series [17] concerns the target T1, NAPRT (Homo sapiens, UniProt Q6XQN6).
T1 sequence (Q6XQN6 1-538): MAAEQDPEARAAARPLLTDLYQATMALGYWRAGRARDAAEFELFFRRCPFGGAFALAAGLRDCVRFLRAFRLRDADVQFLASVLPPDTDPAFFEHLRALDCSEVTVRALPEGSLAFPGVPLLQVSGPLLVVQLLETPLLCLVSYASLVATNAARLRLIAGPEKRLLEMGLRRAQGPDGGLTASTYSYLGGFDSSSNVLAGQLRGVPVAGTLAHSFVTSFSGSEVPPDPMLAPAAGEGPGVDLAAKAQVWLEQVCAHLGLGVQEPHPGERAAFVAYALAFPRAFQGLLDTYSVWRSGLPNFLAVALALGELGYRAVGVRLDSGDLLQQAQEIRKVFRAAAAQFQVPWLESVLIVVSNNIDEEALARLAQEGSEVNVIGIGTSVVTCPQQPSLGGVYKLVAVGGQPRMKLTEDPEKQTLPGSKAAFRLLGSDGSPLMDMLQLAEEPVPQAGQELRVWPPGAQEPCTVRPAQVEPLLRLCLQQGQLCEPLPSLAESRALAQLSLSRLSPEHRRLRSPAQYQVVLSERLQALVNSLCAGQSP
The settings on record: cited from earlier work.

In series [18] the test system is myeloma. The conditions noted are these: unless nicotinic acid is given 24 hours after the NAMPRTi; Beauparlant et al.; cited from earlier work.
Series [19] has as its system ovarian cancer cell line A2780. In words: CellTiterGlo luminescent cell viability assay. Format: cell-based. The settings on record: 3 days treatment, 1 mM nicotinic acid. The method, then:
FIG. 7 illustrates cell viability in the ovarian cancer cell line A2780 measured by CellTiterGlo® after 3 days of CHS-828 treatment with and without 1 mM nicotinic acid added to the medium.
as §1
A general note: In ATP-based viability assays light output follows the ATP content of the culture.

For series [20] the following is noted: APO866 40 mg/kg i.p. x2/day for 4 days, nicotinic acid 20 mg/kg x1/day p.o. for five days; last treatment day.
The mark [21] stands for this setting: increase of IC50 to APO866 with 100 μM nicotinic acid in medium.
Where [22] appears, read: 60 mg/kg APO866 twice daily on four consecutive days, vehicle p.o. (no nicotinic acid).

pIC50: −log10 of the molar value.

As to `N#C/N=C(\NCCCCCCC(=O)N(Cc1ccccc1)OC1CCCCC1)Nc1ccncc1` [Compound 1050], the “rescue by nicotinic acid from treatment” value in [1] is on record as “can rescue”; in series [2], “not similarly protected”.

In the case of `O=C(/C=C/c1cccnc1)NCCCCC1CCN(C(=O)c2ccccc2)CC1` [APO866], the “protection against APO866 in medium containing nicotinic acid” value in series [3] (100 μM nicotinic acid) and in [7] (100 μM nicotinic acid) was “not protected” throughout. For the same compound, the NA rescue effect result is “− (No rescue effect defined as <2-fold increase in IC50)” in [3] (setting [21]); “+ (Rescue effect defined as >39-fold increase of IC50 to APO866 treatment)” in series [4] (setting [21]); “+ (Rescue effect defined as >39-fold increase of IC50 to APO866 treatment)” in series [5] (setting [21]); “+ (Rescue effect defined as >39-fold increase of IC50 to APO866 treatment)” in series [6] (setting [21]); “− (No rescue effect defined as <2-fold increase in IC50)” in series [7] (setting [21]). For the same compound, the “increase of IC50 values in nicotinic acid containing medium compared to standard medium” value in series [4] (100 μM nicotinic acid), in series [5] (100 μM nicotinic acid) and in [6] (100 μM nicotinic acid) was 40-90 fold in each case. The pIC50 (as a rule, the IC50 on a negative log10 scale, so that one unit is a factor of ten) in series [8] (range over the cell lines of the panel, continuous treatment) is 7.89 to 9.00. The LD50 turned out to be 5.5 ± 1.4 nM in series [9] (with nicotinic acid (100 μM) present) and 4.8 ± 3.0 nM in series [9] (without nicotinic acid). The MTD – broadly, the highest dose tested that stayed within the study's limit of toxicity – in series [10] stood at 15 mg/kg. Besides, the survival of mice entry in [11] (60 mg/kg APO866 twice daily on four consecutive days combined with 50 mg/kg/day nicotinic acid p.o., until day 26) was “all the mice of the group treated with nicotinic acid survived”. Further, in series [11] (setting [22]), the death of mice entry is “the majority of the control mice died on day 3 and 4”. The “mice that survive the initial toxicity and recover” value in series [11] (setting [22]) is recorded as 1 of 7. Moreover, the “increase of lifespan (% ILS, until tumour size of 800 mm3) compared to the control group” value in series [12] (15 mg/kg APO866 i.p. twice daily, weekly four-day cycles for two weeks) is recorded as 50%. Besides, the “anti-proliferative effect with nicotinic acid co-treatment” value in [12] (15 mg/kg APO866 with 50 mg/kg nicotinic acid) is on record as “negates the anti-proliferative effect”. Also, the “increase in % ILS” value in [12] (50 mg/kg APO866 i.p. and 50 mg/kg nicotinic acid p.o.) amounted to 180%. For the same compound, the “body weight between the groups” value in [12] (during the study, data not shown) is “did not vary significantly”. In [13] (15 mg/kg APO866 and nicotinic acid, p=0.14), the “survival compared with controls” value was “not significantly different from controls”. In addition, the “tumour growth compared with untreated controls” value in series [13] (50 mg/kg APO866 and nicotinic acid, p=0.002) is “reduced tumour growth”. Moreover, the “effect on tumour size compared with 15 mg/kg APO866 and nicotinic acid” value in series [13] (50 mg/kg APO866 combined with nicotinic acid, p=0.97) is “does not improve the effect on tumour size in a significant way”. Further, the effect on tumours entry in [13] (APO866 only) is “complete elimination of the tumours before day 10”. Besides, the “body weight change between the groups” value in series [13] (data not shown) was “No overall differences in body weight change”. Also, the “anti-proliferative effect with nicotinic acid co-administered” value in series [13] (same APO866 dose with nicotinic acid) is reported as “partially negated”. In addition, the “effect of vitamin PP compounds on cytotoxic effect” value in series [14] and in series [15] was “neutralise the cytotoxic effect” throughout. The “effect of vitamin PP compounds on cytotoxicity” value in series [16] is “neutralise the cytotoxicity”. In addition, the “inhibition of the enzyme NAPRT” value in series [17] is reported as “not inhibited”.

For `COCCOCCOCCOCCOC(=O)OC[n+]1ccc(N/C(=N/C#N)NCCCCCCOc2ccc(Cl)cc2)cc1.[Cl-]` [GMX1777], in series [18], the “effect of nicotinic acid on antitumour effect” value was “abrogates the antitumour effect”.

In the case of `N#CN=C(NCCCCCCOc1ccc(Cl)cc1)Nc1ccncc1` [CHS828], the “rescue by nicotinic acid from cytotoxicity” value in series [19] is recorded as “minimally rescued”.

As for `O=C(O)c1cccnc1` [nicotinic acid], the “effect of nicotinic acid in itself on the survival of the cells” value in series [8] (100 μM nicotinic acid added to the medium, data not shown) was “no effect”. For the same compound, in series [11] (nicotinic acid administered on the same days as APO866), the “protection against APO866-induced death” value is listed as “protects against death even at four times the normal MTD”. Moreover, the “platelet count upon APO866 treatment, nicotinic acid group compared to control” value in [20] is given as “significantly improved”.
